Measured values: patent US10004761B2, “Malodor neutralizing composition” (priority 2016, dated 2018)

System: hyaluronidase Type IV-S, from bovine testes (Hyase)
Test: HA gelation consistency (Method III) in the presence of Hyase
Assay type: biochemical
Settings: for Consistency after 24 h incubation at 37° C.: HA 1% 2 mL
Method: Method III (Viscosity of HA): HA at low concentrations (e.g., 1%) in aqueous solution forms a viscous colloidal hydrogel solution, which yields semi-solid gel particles at room temperature and a solid gel at 4° C.
HA degradation was evaluated using Method III, as described hereinabove.
HA state of gelation was studied in the presence of NAC and various HA-degrading enzymes, using the following Stock solutions:
The tested enzyme (50 μL) was placed in a tube, NAC (50 μL of the Stock solution, final concentration of about 3.3%) was added and the mixture was incubated for 2 hours at room temperature (23° C.). Then, 2 ml of HA 1% were added to each tube and tubes were further incubated at room temperature for additional 24 hours.
In a second set of experiments, NAC (50 μL of the Stock solution) was added to a tube containing 2 ml of HA 1%; and the tubes were incubated for 2 hours at room temperature. Then, the HA-degrading enzyme was added and tubes were incubated at room temperature for additional 24 hours. In control tubes 9 and 10 (containing only HA), 50 μL of water were added to achieve the same volume as the other tested tubes.
In another set of experiments, the effect of NAC powder, (at a final concentration of 20%), on HA gelation in the presence of Hyase or Chondroitinase ABC was tested. HA (2 ml of 1%), and the tested enzyme were incubated with and without 400 mg of NAC powder, at 4° C. and at 37° C.
HA gelation in the presence of various concentrations of NAC and/or various concentrations of Hyase was further studies. […] The solutions were maintained for 24 hours at room temperature, and thereafter Hyase, at various concentrations, was added. Then the mixtures were incubated at room temperature. The enzyme was absent in the control tubes.
In another set of experiments, the effect of various NAC concentrations on gelation of HA 1% (2 mL in each tube) in the presence of Hyase (50 μL of Stock solution) following incubation at 37° C., was tested, using the same procedure as described hereinabove.

CC(=O)N[C@@H](CS)C(=O)O [NAC, N-acetyl L-cysteine]
NAC concentration that fails to inhibit HA degradation (HA 1%, Hyase 50 μL, 37° C. 24 h): lower than 1%
NAC concentration range with the best effect (HA 1%, Hyase 50 μL, at 37° C.): 4-16%
Consistency after 24 h incubation at 37° C. (NAC 0.25% (5 mg), Hyase 50 μL): Fluid liquid (for a fluid liquid were in the range of 1-500 mPa S)
Consistency after 24 h incubation at 37° C. (NAC 0.5% (10 mg), Hyase 50 μL): Fluid liquid (for a fluid liquid were in the range of 1-500 mPa S)
Consistency after 24 h incubation at 37° C. (NAC 1.0% (20 mg), Hyase 50 μL): Viscous liquid (for a viscous liquid in the range of 1-10 Pa S)
Consistency after 24 h incubation at 37° C. (NAC 2.0% (40 mg), Hyase 50 μL): Viscous liquid (for a viscous liquid in the range of 1-10 Pa S)
Consistency after 24 h incubation at 37° C. (NAC 4.0% (80 mg), Hyase 50 μL): Semisolid (for a semi-solid in the range of 50-70 Pa S)
Consistency after 24 h incubation at 37° C. (NAC 8% (160 mg), Hyase 50 μL): Semisolid (for a semi-solid in the range of 50-70 Pa S)
Consistency after 24 h incubation at 37° C. (NAC 10% (200 mg), Hyase 50 μL): Semisolid (for a semi-solid in the range of 50-70 Pa S)
Consistency after 24 h incubation at 37° C. (NAC 20% (400 mg), Hyase 50 μL): Fluid liquid (for a fluid liquid were in the range of 1-500 mPa S)
Consistency (Table 2: Hyase 50 μL + NAC 50 μL (400 mM stock, about 3.3%) 2 h at 23° C., then HA 1% 2 mL, 24 h room temperature): Solid (for a solid the results were in the range of 80-100 Pa S and higher)
Consistency (Table 3: NAC 50 μL added to HA 1% 2 mL first (0.5% NAC final), 2 h, then Hyase 50 μL, 24 h room temperature): Fluid Liquid
Consistency (Table 4: NAC 400 mg dry powder (20% final), HA 2 cc of 1%, Hyase 50 μL, 4° C.): Semisolid (for a semi-solid in the range of 50-70 Pa S)
Consistency (Table 4: NAC 400 mg dry powder (20% final), HA 2 cc of 1%, Hyase 50 μL, 37° C., cell wraps: Viscous liquid): Viscous
Consistency (Table 5: NAC 5% (2 mL), HA 40 mg dry powder, Hyase 50 μL, room temperature, cell wraps: Solid, no crystals): Solid, no
Consistency (Table 5: NAC 10% (2 mL), HA 40 mg dry powder, Hyase 50 μL, room temperature, cell wraps: Solid, no crystals): Solid, no
